Measurements: publication PMC10374545, “A small molecule inhibitor of PTP1B and PTPN2 enhances T cell anti-tumor immunity” (Nature Communications, 2023)

Experiments:
PTPN2 = target: T1, PTPN2 (Homo sapiens, UniProt P17706); assay: PTP inhibition assay with DiFMUP substrate (IC50); assay type: biochemical
T1 construct: PTPN2, residues 1-387; made in house; host or cells: E. coli BL21(DE3)
T1 sequence (P17706 1-387 isoform P17706-2): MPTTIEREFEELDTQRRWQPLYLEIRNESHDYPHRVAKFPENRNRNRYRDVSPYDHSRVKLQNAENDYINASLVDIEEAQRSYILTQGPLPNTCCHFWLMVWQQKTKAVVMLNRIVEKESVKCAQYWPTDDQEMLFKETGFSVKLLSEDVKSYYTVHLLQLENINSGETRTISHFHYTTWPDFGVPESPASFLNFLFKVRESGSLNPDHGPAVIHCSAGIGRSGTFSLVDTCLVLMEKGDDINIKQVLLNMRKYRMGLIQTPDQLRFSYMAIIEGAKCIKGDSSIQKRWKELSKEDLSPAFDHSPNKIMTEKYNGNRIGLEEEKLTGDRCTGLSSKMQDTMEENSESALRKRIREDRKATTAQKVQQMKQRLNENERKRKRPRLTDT
Experimental: E. coli BL21(DE3) (Novagen) was used as an expression host and the induction of protein expression was carried out in LB media with 1 mM IPTG at 18 °C overnight. Cell pellets were stored at −80 °C for subsequent protein purification.
Protein purification of PTPs for enzymatic assays was conducted at 4 °C. Frozen cell pellets were lysed by sonication in 40 ml cold lysis buffer (50 mM Tris-HCl, pH 8.0, 150 mM NaCl, 5 mM imidazole, and 1 mM PMSF) per litre cell pellet. Cell lysates were clarified by centrifugation using a Beckman JA-18 rotor for 15 min at 5308 x g. The supernatant was incubated with HisPur Ni-NTA resin (Thermo Scientific) for 2 h and then packed onto a column and washed with 50 resin volume of buffer A (50 mM Tris-HCl, pH 8.0, 500 mM NaCl, 5 mM imidazole). The His-tagged proteins were eluted with Buffer B (50 mM Tris-HCl, pH=8.0, 500 mM NaCl, 300 mM imidazole,). Pooled His-protein-containing fractions were concentrated, loaded onto a HiLoad 26/600 Superdex 75 column (GE Healthcare Biosciences) and eluted with storage buffer (50 mM Tris-HCl, pH 8.0, 150 mM NaCl, 1 mM DTT, 10% glycerol). […] The protein was aliquoted and stored at −80 °C.
The PTP kinetic assay was modified from previous reported protocols[73],[74]. […] The fluorescence signal was measured using a CLARIOstar Plus Microplate Spectrophotometer (BMG Labtech) using excitation and emission wavelengths of 340 nm and 450 nm, respectively. […]
To determine the mode of inhibition, the reactions were initiated by the addition of enzyme (final concentration for PTP1B and PTPN2 was 0.05 nM) to the reaction mixtures (0.2 ml) containing various concentrations of DiFMUP with different concentrations of the inhibitor. […] The fluorescence signal was measured using a CLARIOstar Plus Microplate Spectrophotometer (BMG Labtech) using excitation and emission wavelength of 340 nm and 450 nm, respectively. […]

[1] = system: STAT-5 Y694 phosphorylation in NK cells; assay: IL-15-induced p-STAT-5 in NK cells; assay type: cell-based, mouse; conditions: 0.1 or 1 (µM in figure, µg/ml in legend)
Experimental: proliferation in vitro. a-b) NK cells from C57BL/6 male mice (n=3 per group) were expanded […]
µg/ml) or vehicle (1% v/v DMSO) in the absence of IL-15. a) NK cells were re-stimulated for 15 min with the indicated amounts of IL-15 and Y694 phosphorylated STAT-5 (p-STAT-5) mean fluorescence intensities (MFIs) determined by flow cytometry. b) Alternatively, NK cells were stained with carboxyfluorescein succinimidyl ester (CFSE, Invitrogen) and then re-stimulated with the indicated amounts of IL-15 for 96 h and NK cell proliferation (CFSE dilution) monitored by flow cytometry. c-d) NK cells from C57BL/6 male mice (n=3 per group) were expanded ex vivo in the presence of IL-15 and then pre-treated with CMP-182 (0.1 or 1 µg/ml) or vehicle in the absence of IL-15. NK cells were re-stimulated with either IL-12 (10 ng/ml) or IL-18 (100 ng/ml) or with α-NK1.1 or α-Ly49H for 4 h. NK cells were maintained in 10 ng/ml IL-15 throughout the 4 h incubation time. Percentages of c) IFN-γ+ and d) CD107A+ NK cells were determined by flow cytometry. In (a-d) results shown are means ± SEM and are representative of at least two independent experiments.

[2] = system: p-STAT-1 and CD3 in AT3-OVA tumors; assay: Immunohistochemistry for p-STAT-1 (Y701) and CD3 in AT3-OVA tumors; assay type: in vivo, mouse; conditions: 10 mg/kg i.v.
Experimental: For the immunohistochemistry analysis of mammary tumor samples, samples were dissected and fixed in 10% formalin. After fixation, the tissues were embedded in paraffin and sectioned onto microscopic glass slides at 4 μm thickness per section. After deparaffinization and rehydration, the slides were subjected to antigen retrieval in Tris/EDTA buffer (pH 8.0) at 120 °C for 10 min and then cooled down to room temperature. The slides were blocked with 5% (v/v) normal goat serum (NGS) containing 0.1% (v/v) TritonX-100 in PBS for 1 h at room temperature and then incubated with primary antibody p-STAT-1 (Tyr701) (1:500; Cell Signaling Technology), or CD3ε (1:1000; Dako) at room temperature for 1 h. Slides were then washed with PBS containing 0.05% (w/v) Tween-20 and visualized using a rabbit IgG VECTORSTAIN ABC Elite and DAB (3,3′‐diaminobenzidine) Peroxidase Substrate Kit (Vector Laboratories, UK) and counterstained with haematoxylin. Slides were imaged on an Olympus CX43 microscope (Olympus, Tokyo, Japan).

CC(C)(O)CCOc1ccc2cc(O)c(N3CC(=O)NS3(=O)=O)c(F)c2c1 [Compound 182, 5-(1-Fluoro-3-hydroxy-7-(3-hydroxy-3-methylbutoxy)naphthalen-2-yl)−1,2,5-thiadiazolidin-3-one 1,1-dioxide]
IC50 (PTPN2; DiFMUP 10 μM as substrate): 0.58 ± 0.02 nM
IC50 (PTPN2; TC-PTP, DiFMUP 10 μM, pH 7.0, 25 °C): 0.58 ± 0.02 nM
IL-15-induced p-STAT-5 in NK cells [1]: did not enhance
p-STAT-1 signaling and T cell infiltrates in AT3-OVA tumors of Lck-Cre;Ptpn2fl/fl mice [2]: did not further increase
p-STAT-1 staining and abundance of CD3ε+ T cells in AT3-OVA tumors ([2]; C57BL/6 mice): increased
